Data published in patent publication US12018021B2 (UCB Biopharma SRL, priority 2018, dated 2024).

biological target: IgE-Tb / sFcεRIα-Y131A-AF488 (Homo sapiens, UniProt P01854, N146Q/N252Q); assay: IgE-Tb / sFcεRIα-Y131A-AF488 FRET assay (protocol for examples 234 to 501); type: binding; details: examples 234 to 501: compound with IgE-Tb 30 minutes before sFcεRIα-Y131A-AF488, incubated 18 hours at room temperature; read-out: Y131A FRET IC50 range
Summary of the method: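 Compounds (10-point 3-fold series, top usually 10 μM, 2% DMSO) preincubated 30 min with 5 nM IgE-Tb, then 25 nM sFcεRIα-Y131A-AF488 added; 18 h at room temperature in the dark. TR-FRET ratio 520/490 nm after 337 nm excitation, background-subtracted; IC50 by four-parameter logistic fit.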

Chain of IgE-Tb / sFcεRIα-Y131A-AF488 (P01854 whole entry N146Q/N252Q): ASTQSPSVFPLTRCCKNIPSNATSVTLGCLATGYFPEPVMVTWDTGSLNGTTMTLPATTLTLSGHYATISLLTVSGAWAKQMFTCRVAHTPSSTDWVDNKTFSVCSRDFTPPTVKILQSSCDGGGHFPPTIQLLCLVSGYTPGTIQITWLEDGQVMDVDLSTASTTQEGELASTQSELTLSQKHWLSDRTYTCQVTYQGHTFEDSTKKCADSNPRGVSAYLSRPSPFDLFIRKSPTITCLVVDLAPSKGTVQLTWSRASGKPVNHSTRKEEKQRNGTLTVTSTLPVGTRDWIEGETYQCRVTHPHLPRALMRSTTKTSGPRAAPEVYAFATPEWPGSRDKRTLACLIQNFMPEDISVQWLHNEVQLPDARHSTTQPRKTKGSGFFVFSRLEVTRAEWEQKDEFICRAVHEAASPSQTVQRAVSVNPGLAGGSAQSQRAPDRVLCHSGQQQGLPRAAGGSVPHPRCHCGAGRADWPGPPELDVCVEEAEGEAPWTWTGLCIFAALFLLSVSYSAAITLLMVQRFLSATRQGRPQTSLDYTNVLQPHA

Row | Compound | IC50
1 | C[S+]([O-])c1cccc(Nc2nncn2[C@H]2CCc3sc(NC(=O)C4CC45CC5)c(C(=O)NCC4CC4)c3C2)n1 (stereo partly drawn) [Example 255, (5S)—N-(cyclopropylmethyl)-5-[3-[(6-methylsulfinyl-2-pyridyl)amino]-1,2,4-triazo-4-yl]-2-(spiro[2.2]pentane-2-carbonylamino)-4,5,6,7-tetrahydrobenzothiophene-3-carboxamide] | < 1000 nM
2 | Cn1nc(OC(F)F)cc1Nc1nncn1[C@H]1CCc2sc(NC(=O)C3CC(F)(F)C3)c(C(=O)NC[C@@H]3C[C@@H]3F)c2C1 [Example 490, (5S)-2-[(3,3-difluorocyclobutanecarbonyl)amino]-5-[3-[[5-(difluoromethoxy)-2-methylpyrazol-3-yl]amino]-1,2,4-triazol-4-yl]-N-[[(1S,2S)-2-fluorocyclopropyl]methyl]-4,5,6,7-tetrahydro-1-benzothiophene-3-carboxamide] | < 1000 nM
3 | COc1cc(Nc2nncn2[C@H]2CCc3sc(NC(=O)[C@H]4C[C@@H]4C)c(C(=O)NC[C@H]4CC4(F)F)c3C2)n(C)n1 (single isomer, unassigned) [Example 463] | < 1000 nM
4 | Cc1nnccc1Nc1nncn1[C@H]1CCc2sc(NC(=O)C3CC3)c(C(=O)NCC3CC3)c2C1 [Example 304, (5S)-2-(cyclopropanecarbonylamino)-N-(cyclopropylmethyl)-5-[3-[(3-methylpyridazin-4-yl)amino]-1,2,4-triazol-4-yl]-4,5,6,7-tetrahydrobenzothiophene-3-carboxamide] | < 1000 nM
5 | O=C(NCC1CC1)c1c(NC(=O)C2CC2)sc2c1C[C@@H](n1cnnc1N[C@H]1CN(C(=O)c3ccccc3)CC1(F)F)CC2 (relative stereo) [Example 285, (5S)-5-[3-[[(3S*)-1-benzoyl-4,4-difluoro-pyrrolidin-3-yl]amino]-1,2,4-triazol-4-yl]-2-(cyclopropanecarbonylamino)-N-(cyclopropylmethyl)-4,5,6,7-tetrahydrobenzothiophene-3-carboxamide [* or R]] | < 1000 nM
6 | CS(=O)(=O)N1CC[C@@H](Nc2nncn2[C@H]2CCc3sc(NC(=O)C4CC4)c(C(=O)NCC4CC4)c3C2)C1 [Example 268, (5S)-2-(cyclopropanecarbonylamino)-N-(cyclopropylmethyl)-5-[3-[[(3R)-1-methylsulfonylpyrrolidin-3-yl]amino]-1,2,4-triazol-4-yl]-4,5,6,7-tetrahydrobenzothiophene-3-carboxamide] | < 1000 nM
7 | C[C@H]1C[C@@H]1C(=O)Nc1sc2c(c1C(=O)NCC1CC1)C[C@@H](n1cnnc1Nc1cc(OC(F)F)nn1C)CC2 [Example 352, (5S)—N-(cyclopropylmethyl)-5-[3-[[5-(difluoromethoxy)-2-methylpyrazol-3-yl]amino]-1,2,4-triazol-4-yl]-2-[[(1S,2S)-2-methylcyclopropanecarbonyl]amino]-4,5,6,7-tetrahydro-1-benzothiophene-3-carboxamide] | < 1000 nM
8 | Cn1nc(C(F)F)cc1Nc1nncn1[C@H]1CCc2sc(NC(=O)[C@H]3CC34CC4)c(C(=O)NCC3CC(F)(F)C3)c2C1 [Example 407, (5S)—N-[(3,3-Difluorocyclobutyl)methyl]-5-[3-[[5-(difluoromethyl)-2-methylpyrazol-3-yl]amino]-1,2,4-triazol-4-yl]-2-[[(2S)-spiro[2,2]pentane-2-carbonyl]amino]-4,5,6,7-tetrahydro-1-benzothiophene-3-carboxamide] | < 1000 nM
9 | Cn1nc(C(F)(F)F)cc1Nc1nncn1[C@H]1CCc2sc(NC(=O)[C@H]3C[C@H]3F)c(C(=O)N[C@H]3C[C@H](F)C3)c2C1 [Example 402, (5S)—N-(trans-3-fluorocyclobutyl)-2-[[(1R,2R)-2-fluorocyclopropanecarbonyl]amino]-5-[3-[[2-methyl-5-(trifluoromethyl)pyrazol-3-yl]amino]-1,2,4-triazol-4-yl]-4,5,6,7-tetrahydro-1-benzothiophene-3-carboxamide] | < 1000 nM
10 | COc1cc(Nc2nncn2[C@H]2CCc3sc(NC(=O)[C@H]4C[C@@H]4C)c(C(=O)NC[C@@H]4CC4(F)F)c3C2)n(C)n1 (single isomer, unassigned) [Example 464] | < 1000 nM

biological target: IgE-Tb / FcεRIα-Y131A-AF488 (Homo sapiens, UniProt P01854); assay: IgE-Tb / FcεRIα-Y131A-AF488 FRET assay (protocol for examples 1 to 233); type: binding; details: examples 1 to 233: 5 nM IgE-Tb, 25 nM FcεRIα-Y131A-AF488, incubated 2 hours at room temperature; read-out: Y131A FRET IC50 range
Sequence (P01854 1-427 limits assumed, stated change not applied): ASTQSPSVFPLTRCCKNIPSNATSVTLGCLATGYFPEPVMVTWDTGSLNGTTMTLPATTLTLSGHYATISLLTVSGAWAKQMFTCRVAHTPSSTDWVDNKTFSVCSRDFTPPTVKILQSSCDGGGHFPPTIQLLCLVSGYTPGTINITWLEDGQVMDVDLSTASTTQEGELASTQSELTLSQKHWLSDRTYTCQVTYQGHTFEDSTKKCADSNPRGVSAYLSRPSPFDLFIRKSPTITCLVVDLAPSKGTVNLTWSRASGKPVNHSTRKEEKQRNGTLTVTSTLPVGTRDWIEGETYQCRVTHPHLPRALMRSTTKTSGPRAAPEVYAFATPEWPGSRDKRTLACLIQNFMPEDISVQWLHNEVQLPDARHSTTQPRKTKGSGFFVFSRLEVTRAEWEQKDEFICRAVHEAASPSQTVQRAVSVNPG
Method: For examples 1 to 233, the assay was conducted according to the following: Each assay reaction was conducted in a volume of 25 μl in a 384-well half-volume plate. 10 point compound serial dilutions (3-fold) were generated in DMSO at a concentration of ×50 that of the final assay concentration (FAC). Compound solutions were then prepared by IgE-Tb diluting 10-fold in assay buffer. For the assay, 5 μl of diluted compound was added to 10 μl of, followed by addition of 10 μl FcεRIα-Y131A-AF488. FRET reagents FACs were 5 nM IgE-Tb, 25 nM FcεRIα-Y131A-AF488. Usually the top FAC of compound in the assay was 10 μM. The final DMSO concentration was 2%. The minimum signal (MIN) was measured by adding 5l unlabelled FcεRIα at 1 μM (FAC=200 nM) to the FRET reagents. The maximum FRET signal (MAX) was measured in wells containing FRET reagents but no compound. The assay was incubated for 2 hours at room temperature, protected from light and evaporation, and with gentle agitation.
Measurement of FRET for each well was carried out by exciting at 330 nm and measuring emission at 495/520 nm using an Envision plate reader (Perkin Elmer). FRET ratio was calculated as follows: Emission at 520/Emission at 495×1000.
The FRET ratio was used for the data analysis.
Z′ was calculated as follows (σ=standard deviation and μ=mean): 1−((3×σMAX)+(3×σMIN))/(μMAX−μMIN)
Z′ above 0.5 was considered a good assay.
Background signal (MIN) was subtracted from all wells. Using the background subtracted values, the percent inhibition by compound in each test-well was calculated as follows: 100−Test-well FRET ratio/MAX FRET ratio×100.
Percent inhibition was plotted against compound concentration. IC50 values for each compound were determined using four parameter logistic fit model using the XLFIT5 software package.

Row | Compound | IC50
11 | O=C(NCC1CC1)c1c(NC(=O)C2CC2)sc2c1C[C@@H](n1cnnc1NCC1CC1)CC2 [Example 130, (5S)-2-(Cyclopropanecarbonylamino)-N-(cyclopropylmethyl)-5-[3-(cyclopropylmethylamino)-1,2,4-triazol-4-yl]-4,5,6,7-tetrahydrobenzothiophene-3-carboxamide] | < 1000 nM
12 | CCc1c(N[C@H]2CCc3sc(NC(=O)C4CC4)c(C(=O)NCC4CC4)c3C2)c(=O)c1=O (single isomer, unassigned) [Example 190] | < 1000 nM
13 | CC(C)CNc1nncn1C1CCc2sc(NC(=O)C3CC3)c(C(=O)NCC3CC3)c2C1 (stereo in doubt) [Example 111, (5S)-2-(Cyclopropanecarbonylamino)-N-(cyclopropylmethyl)-5-[3-(isobutylamino)-1,2,4-triazol-4-yl]-4,5,6,7-tetrahydrobenzothiophene-3-carboxamide] | < 1000 nM
14 | O=C1NC(=O)C2(CCc3sc(NC(=O)C4CC4)c(C(=O)NCC4CC4)c3C2)N1 (centres unmarked) [Example 92, 2-(Cyclopropanecarbonylamino)-N-(cyclopropylmethyl)-2′,5′-dioxo-spiro[6,7-dihydro-4H-benzothiophene-5,4′-imidazolidine]-3-carboxamide] | 1000 to 10000 nM
15 | CCNC(=S)NC1CCc2sc(NC(=O)C3CC3)c(C(=O)NCC3CC3)c2C1 (centres unmarked) [Example 142, 2-(Cyclopropanecarbonylamino)-N-(cyclopropylmethyl)-5-(ethylcarbamothioylamino)-4,5,6,7-tetrahydrobenzothiophene-3-carboxamide] | < 1000 nM
16 | O=C(NCC1CC1)c1c(NC(=O)C2CC2)sc2c1CC(C=NO)CC2 (centres unmarked) [Example 58, 2-(cyclopropanecarbonylamino)-N-(cyclopropylmethyl)-5-(hydroxyiminomethyl)-4,5,6,7-tetrahydrobenzothiophene-3-carboxamide] | 1000 to 10000 nM
17 | O=C(NCC1CC1)c1c(NC(=O)C2CC2)sc2c1CC(C(=O)Nc1ccncc1)CC2 (centres unmarked) [Example 52, 2-(Cyclopropanecarbonylamino)-N3-(cyclopropylmethyl)-N5-(4-pyridyl)-4,5,6,7-tetrahydrobenzothiophene-3,5-dicarboxamide] | < 1000 nM
18 | CCNC(=NC#N)N[C@H]1CCc2sc(NC(=O)C3CC3)c(C(=O)NCC3CC3)c2C1 [Example 156, (5S)-5-[[N′-cyano-N-ethyl-carbamimidoyl]amino]-2-(cyclopropanecarbonylamino)-N-(cyclopropylmethyl)-4,5,6,7-tetrahydrobenzothiophene-3-carboxamide] | < 1000 nM
19 | O=C(Nc1sc2c(c1S(=O)(=O)NCC1CC1)CCCC2)C1CC1 [Example 15, N-[3-(Cyclopropylmethylsulfamoyl)-4,5,6,7-tetrahydrobenzothiophen-2-yl]cyclopropanecarboxamide] | < 1000 nM
20 | O=C(NCC1CC1)c1c(NC(=O)C2CC2)sc2c1CC(Nc1n[nH]c(-c3cccnc3)n1)CC2 (centres unmarked) [Example 180, 2-(Cyclopropanecarbonylamino)-N-(cyclopropylmethyl)-5-[[5-(3-pyridyl)-1H-1,2,4-triazol-3-yl]amino]-4,5,6,7-tetrahydrobenzothiophene-3-carboxamide] | < 1000 nM
21 | Cc1ccc(N2C(=O)CN=C2NC2CCc3sc(NC(=O)C4CC4)c(C(=O)NCC4CC4)c3C2)cc1 (centres unmarked) [Example 194, 2-(Cyclopropanecarbonylamino)-N-(cyclopropylmethyl)-5-[[5-oxo-1-(p-tolyl)-4H-imidazol-2-yl]amino]-4,5,6,7-tetrahydrobenzothiophene-3-carboxamide] | 1000 to 10000 nM
22 | CCNc1nnc(COC)n1C1CCc2sc(NC(=O)C3CC3)c(C(=O)NCC3CC3)c2C1 (centres unmarked) [Example 179, 2-(Cyclopropanecarbonylamino)-N-(cyclopropylmethyl)-5-[3-(ethylamino)-5-(methoxymethyl)-1,2,4-triazol-4-yl]-4,5,6,7-tetrahydrobenzothiophene-3-carboxamide] | 1000 to 10000 nM
23 | CC1(CNc2nncn2[C@H]2CCc3sc(NC(=O)C4CC4)c(C(=O)NCC4CC4)c3C2)CC1 [Example 112, (5S)-2-(Cyclopropanecarbonylamino)-N-(cyclopropylmethyl)-5-[3-[(1-methylcyclopropyl)methylamino]-1,2,4-triazol-4-yl]-4,5,6,7-tetrahydrobenzothiophene-3-carboxamide] | < 1000 nM
